According to article PMC6199744, “Development of Chemical Proteomics for the Folateome and Analysis of the Kinetoplastid Folateome” (ACS Infectious Diseases, 2018):
Read-outs that look alike come from different tables or passages of the source.

How the values were obtained:
Assay type in all cases: binding
[1] = target: T1, HeLa cell extract proteins (Homo sapiens, UniProt P30086)
T1 construct: endogenous in cells; host or cells: HeLa cell extract

[2] = target: T2, HeLa cell extract proteins (Homo sapiens, UniProt P53701)
T2 construct: endogenous in cells; host or cells: HeLa cell extract
T2 sequence (P53701 1-268): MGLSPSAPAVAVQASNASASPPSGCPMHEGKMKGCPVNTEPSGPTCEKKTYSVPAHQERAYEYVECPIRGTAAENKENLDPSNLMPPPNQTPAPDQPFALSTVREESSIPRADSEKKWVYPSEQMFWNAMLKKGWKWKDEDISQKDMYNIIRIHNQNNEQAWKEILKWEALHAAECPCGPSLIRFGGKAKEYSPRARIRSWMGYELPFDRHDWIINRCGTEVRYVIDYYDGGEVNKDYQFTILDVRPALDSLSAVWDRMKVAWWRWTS

[3] = target: T3, HeLa cell extract proteins (Homo sapiens, UniProt P60900)
T3 construct: endogenous in cells; host or cells: HeLa cell extract
T3 sequence (P60900 whole entry): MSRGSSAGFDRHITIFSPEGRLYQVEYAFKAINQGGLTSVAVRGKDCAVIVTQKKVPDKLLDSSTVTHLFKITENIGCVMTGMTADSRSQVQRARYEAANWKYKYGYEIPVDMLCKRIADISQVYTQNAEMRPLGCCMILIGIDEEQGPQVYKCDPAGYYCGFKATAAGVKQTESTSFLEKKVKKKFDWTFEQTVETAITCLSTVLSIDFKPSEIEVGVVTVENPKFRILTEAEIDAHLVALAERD

[4] = target: T4, HeLa cell extract proteins (Homo sapiens, UniProt P67775)
T4 construct: endogenous in cells; host or cells: HeLa cell extract
T4 sequence (P67775 whole entry): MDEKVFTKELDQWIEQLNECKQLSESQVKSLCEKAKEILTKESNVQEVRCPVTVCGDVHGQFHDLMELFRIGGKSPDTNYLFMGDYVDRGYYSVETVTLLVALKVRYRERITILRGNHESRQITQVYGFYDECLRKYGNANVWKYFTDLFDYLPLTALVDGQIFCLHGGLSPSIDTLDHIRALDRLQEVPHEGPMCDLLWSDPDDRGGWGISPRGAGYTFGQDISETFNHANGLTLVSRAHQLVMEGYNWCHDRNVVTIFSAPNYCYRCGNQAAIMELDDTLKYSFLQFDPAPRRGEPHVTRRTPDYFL

[5] = target: T5, HeLa cell extract proteins (Homo sapiens, UniProt Q7RTS9)
T5 construct: endogenous in cells; host or cells: HeLa cell extract
T5 sequence (Q7RTS9 1-669): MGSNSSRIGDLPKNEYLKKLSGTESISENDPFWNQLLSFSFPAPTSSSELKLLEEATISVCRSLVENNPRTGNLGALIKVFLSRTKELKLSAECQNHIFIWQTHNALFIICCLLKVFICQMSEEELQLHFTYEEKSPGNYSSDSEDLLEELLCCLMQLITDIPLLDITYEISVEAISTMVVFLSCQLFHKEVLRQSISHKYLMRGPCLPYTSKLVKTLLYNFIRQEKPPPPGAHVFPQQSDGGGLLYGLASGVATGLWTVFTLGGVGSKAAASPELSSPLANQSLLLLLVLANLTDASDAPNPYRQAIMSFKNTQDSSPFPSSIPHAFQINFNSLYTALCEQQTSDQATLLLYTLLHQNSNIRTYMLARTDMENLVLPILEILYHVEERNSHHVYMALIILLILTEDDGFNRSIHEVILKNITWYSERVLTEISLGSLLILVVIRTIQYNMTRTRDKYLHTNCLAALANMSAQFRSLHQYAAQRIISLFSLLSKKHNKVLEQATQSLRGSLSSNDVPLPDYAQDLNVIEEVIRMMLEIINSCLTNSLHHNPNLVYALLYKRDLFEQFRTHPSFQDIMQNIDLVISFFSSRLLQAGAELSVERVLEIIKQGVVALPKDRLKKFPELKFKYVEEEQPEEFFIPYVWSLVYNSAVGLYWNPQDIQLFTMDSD

[6] = target: T6, HeLa cell extract proteins (Homo sapiens, UniProt Q8N1F7)
T6 construct: endogenous in cells; host or cells: HeLa cell extract
T6 sequence (Q8N1F7 1-819): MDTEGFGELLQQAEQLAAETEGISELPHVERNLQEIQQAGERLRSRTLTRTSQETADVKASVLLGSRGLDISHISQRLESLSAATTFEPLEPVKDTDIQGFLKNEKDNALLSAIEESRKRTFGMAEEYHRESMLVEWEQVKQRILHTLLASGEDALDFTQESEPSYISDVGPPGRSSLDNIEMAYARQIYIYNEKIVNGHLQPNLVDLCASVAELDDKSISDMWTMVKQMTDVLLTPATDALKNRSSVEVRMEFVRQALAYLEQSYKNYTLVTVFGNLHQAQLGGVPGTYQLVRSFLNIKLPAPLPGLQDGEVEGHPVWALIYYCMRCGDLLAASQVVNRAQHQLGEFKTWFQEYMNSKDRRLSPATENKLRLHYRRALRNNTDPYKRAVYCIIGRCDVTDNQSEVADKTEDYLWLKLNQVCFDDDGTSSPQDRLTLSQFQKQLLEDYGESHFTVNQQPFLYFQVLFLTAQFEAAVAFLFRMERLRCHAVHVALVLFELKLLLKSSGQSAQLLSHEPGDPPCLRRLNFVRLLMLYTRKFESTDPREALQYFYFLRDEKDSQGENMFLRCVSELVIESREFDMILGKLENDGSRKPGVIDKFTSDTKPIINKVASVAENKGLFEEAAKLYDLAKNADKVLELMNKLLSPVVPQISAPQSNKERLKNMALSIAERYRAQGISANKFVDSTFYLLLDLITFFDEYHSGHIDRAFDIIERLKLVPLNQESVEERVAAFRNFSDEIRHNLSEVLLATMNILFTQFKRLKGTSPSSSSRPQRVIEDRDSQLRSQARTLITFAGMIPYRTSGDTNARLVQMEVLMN

[7] = target: T7, HeLa cell extract proteins (Homo sapiens, UniProt Q96EN8)
T7 construct: endogenous in cells; host or cells: HeLa cell extract
T7 sequence (Q96EN8 1-888): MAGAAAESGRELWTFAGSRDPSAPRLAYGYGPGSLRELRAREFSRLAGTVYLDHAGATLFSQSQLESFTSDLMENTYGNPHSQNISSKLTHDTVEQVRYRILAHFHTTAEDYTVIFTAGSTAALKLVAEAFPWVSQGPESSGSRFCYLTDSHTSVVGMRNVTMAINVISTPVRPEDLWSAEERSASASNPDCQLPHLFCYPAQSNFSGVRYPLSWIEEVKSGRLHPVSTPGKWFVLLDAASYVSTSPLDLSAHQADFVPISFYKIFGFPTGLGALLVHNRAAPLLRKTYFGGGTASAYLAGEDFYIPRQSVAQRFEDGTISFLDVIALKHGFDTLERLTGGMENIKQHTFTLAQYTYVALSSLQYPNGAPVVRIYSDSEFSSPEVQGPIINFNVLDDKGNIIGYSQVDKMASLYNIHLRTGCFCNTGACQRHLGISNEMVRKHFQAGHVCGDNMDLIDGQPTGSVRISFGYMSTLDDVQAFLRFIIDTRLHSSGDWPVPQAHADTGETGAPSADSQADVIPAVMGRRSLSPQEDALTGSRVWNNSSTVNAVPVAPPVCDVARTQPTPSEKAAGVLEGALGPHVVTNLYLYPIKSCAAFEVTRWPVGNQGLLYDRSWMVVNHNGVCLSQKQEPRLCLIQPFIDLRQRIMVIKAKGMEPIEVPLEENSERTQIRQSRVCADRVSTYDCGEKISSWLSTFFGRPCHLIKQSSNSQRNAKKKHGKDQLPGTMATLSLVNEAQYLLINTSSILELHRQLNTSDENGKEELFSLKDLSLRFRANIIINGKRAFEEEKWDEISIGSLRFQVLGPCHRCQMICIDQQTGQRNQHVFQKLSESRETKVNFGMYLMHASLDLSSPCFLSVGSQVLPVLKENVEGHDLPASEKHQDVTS

[8] = target: T8, HeLa cell extract proteins (Homo sapiens, UniProt Q9UH17)
T8 construct: endogenous in cells; host or cells: HeLa cell extract
T8 sequence (Q9UH17 whole entry): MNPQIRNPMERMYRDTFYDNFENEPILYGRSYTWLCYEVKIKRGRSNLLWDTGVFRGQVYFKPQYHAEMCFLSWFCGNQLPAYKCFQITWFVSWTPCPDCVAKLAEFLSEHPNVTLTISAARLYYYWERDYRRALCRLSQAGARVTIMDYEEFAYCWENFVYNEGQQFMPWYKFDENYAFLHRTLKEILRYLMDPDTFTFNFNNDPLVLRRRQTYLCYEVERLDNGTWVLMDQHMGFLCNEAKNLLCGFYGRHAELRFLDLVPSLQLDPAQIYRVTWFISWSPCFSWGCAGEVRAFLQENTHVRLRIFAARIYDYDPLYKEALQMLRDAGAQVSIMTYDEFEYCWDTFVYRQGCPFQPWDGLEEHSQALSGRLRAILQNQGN

T1 sequence (P30086 whole entry): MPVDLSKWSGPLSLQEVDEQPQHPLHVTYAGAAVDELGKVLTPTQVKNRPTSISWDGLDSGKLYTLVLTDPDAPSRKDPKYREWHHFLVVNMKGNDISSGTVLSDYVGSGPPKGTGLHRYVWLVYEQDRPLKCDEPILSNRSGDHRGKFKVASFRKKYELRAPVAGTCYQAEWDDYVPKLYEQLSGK

## Nc1nc2c(c(=O)[nH]1)N(C=O)C(CNc1ccc(C(=O)N[C@@H](CCC(=O)O)C(=O)O)cc1)CN2 (some centres unmarked) [LEU, leucovorin]
[1]; HeLa, protein PEBP1
  fold changes relative to vehicle control: 0.89
[2]; HeLa, protein HCCS
  fold changes relative to vehicle control: 0.88
[3]; HeLa, protein PSMA6
  fold changes relative to vehicle control: 1.02
[4]; HeLa, captured protein PPP2CA
  fold changes relative to vehicle control: 0.95
[5]; HeLa, protein DYM
  fold changes relative to vehicle control: 0.78
[6]; protein NUP93, HeLa
  fold changes relative to vehicle control: 0.84
[7]; HeLa, protein MOCOS
  fold changes relative to vehicle control: 1.07
[8]; HeLa, protein APOBEC3B
  fold changes relative to vehicle control: 0.93

## NCCCNc1ccc(C(=O)NC(CCC(=O)O)C(=O)O)cc1 (centres unmarked) [compound 7]
[1]; HeLa, protein PEBP1
  fold changes relative to vehicle control: 1.07
[2]; HeLa, protein HCCS
  fold changes relative to vehicle control: 0.98
[3]; HeLa, protein PSMA6
  fold changes relative to vehicle control: 1
[4]; HeLa, captured protein PPP2CA
  fold changes relative to vehicle control: 0.97
[5]; HeLa, protein DYM
  fold changes relative to vehicle control: 0.94
[6]; protein NUP93, HeLa
  fold changes relative to vehicle control: 0.9
[7]; HeLa, protein MOCOS
  fold changes relative to vehicle control: 1.06
[8]; HeLa, protein APOBEC3B
  fold changes relative to vehicle control: 0.94

## CCCCCCOc1cccc(Cc2cnc(N)nc2N)c1 [compound 2]
[1]; protein PEBP1, HeLa
  fold changes relative to vehicle control: 1.9
[2]; HeLa, protein HCCS
  fold changes relative to vehicle control: 0.9
[3]; protein PSMA6, HeLa
  fold changes relative to vehicle control: 1.27
[4]; HeLa, protein PPP2CA
  fold changes relative to vehicle control: 1.02
[5]; HeLa, protein DYM
  fold changes relative to vehicle control: 1.27
[6]; captured protein NUP93, HeLa
  fold changes relative to vehicle control: 0.96
[7]; HeLa, protein MOCOS
  fold changes relative to vehicle control: 1.11
[8]; HeLa, protein APOBEC3B
  fold changes relative to vehicle control: 1.25

## CCCCCCOc1ccc(Cc2cnc(N)nc2N)cc1 [compound 1]
[1]; protein PEBP1, HeLa
  fold changes relative to vehicle control: 1.23
[2]; HeLa, protein HCCS
  fold changes relative to vehicle control: 0.84
[3]; protein PSMA6, HeLa
  fold changes relative to vehicle control: 1.1
[4]; HeLa, protein PPP2CA
  fold changes relative to vehicle control: 0.87
[5]; HeLa, protein DYM
  fold changes relative to vehicle control: 0.89
[6]; captured protein NUP93, HeLa
  fold changes relative to vehicle control: 0.87
[7]; HeLa, protein MOCOS
  fold changes relative to vehicle control: 1.03
[8]; HeLa, protein APOBEC3B
  fold changes relative to vehicle control: 0.92

## Nc1nc2cccc(-c3ccccc3)c2n1Cc1ccc(Cl)c(Cl)c1 [compound 3]
[1]; protein PEBP1, HeLa
  fold changes relative to vehicle control: 1.08
[2]; HeLa, protein HCCS
  fold changes relative to vehicle control: 0.96
[3]; protein PSMA6, HeLa
  fold changes relative to vehicle control: 1.02
[4]; HeLa, protein PPP2CA
  fold changes relative to vehicle control: 0.91
[5]; HeLa, protein DYM
  fold changes relative to vehicle control: 0.88
[6]; captured protein NUP93, HeLa
  fold changes relative to vehicle control: 0.96
[7]; HeLa, protein MOCOS
  fold changes relative to vehicle control: 0.96
[8]; HeLa, protein APOBEC3B
  fold changes relative to vehicle control: 1.01

## NCCOCCOCC(=O)Nc1nc2ncc(CNc3ccc(C(=O)NC(CCC(=O)O)C(=O)O)cc3)nc2c(=O)[nH]1 (centres unmarked) [compound 6]
[1]; HeLa, protein PEBP1
  fold changes relative to vehicle control: 1.42
[2]; HeLa, protein HCCS
  fold changes relative to vehicle control: 0.75
[3]; HeLa, protein PSMA6
  fold changes relative to vehicle control: 1
[4]; HeLa, captured protein PPP2CA
  fold changes relative to vehicle control: 0.91
[5]; HeLa, protein DYM
  fold changes relative to vehicle control: 0.86
[6]; protein NUP93, HeLa
  fold changes relative to vehicle control: 1.01
[7]; HeLa, protein MOCOS
  fold changes relative to vehicle control: 1.11
[8]; HeLa, protein APOBEC3B
  fold changes relative to vehicle control: 1.02

## Nc1nc2[nH]cc(CCc3ccc(C(=O)N[C@@H](CCC(=O)O)C(=O)O)cc3)c2c(=O)[nH]1 [PTX, pemetrexed]
[1]
  fold changes relative to vehicle control: 1.14
[2]
  fold changes relative to vehicle control: 0.88
[3]
  fold changes relative to vehicle control: 1
[4]
  fold changes relative to vehicle control: 0.93
[5]
  fold changes relative to vehicle control: 0.68
[6]
  fold changes relative to vehicle control: 0.91
[7]
  fold changes relative to vehicle control: 1.01
[8]
  fold changes relative to vehicle control: 0.89
